Laboratory results: PubChem BioAssay AID720570 (Broad Institute, 2013)
Activity calls are given as the source filed them.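 The calls were made as follows: active = cell-killing curve crosses a set limit at a concentration no more than twice the top valid dose; inconclusive = flat curve with a 30 to 70% loss, or a poor fit; inactive = signal rising instead of falling, and the rest.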

Assay: TC71 Ewing sarcoma cell killing, confirmation, luminescence, cherry-picked samples, retest (AID 720570)
Settings: TC71 Ewing sarcoma viability, CellTiter-Glo ATP, 72 h; at 21 µM (top of the series)

SMILES	activity change, negative = cytotoxicity
COc1ccc(CN(C)C[C@H]2Oc3ccc(NC(=O)CCCCCC(=O)Nc4ccccc4N)cc3CC(=O)N([C@H](C)CO)C[C@H]2C)cc1	-5.04% (inactive)

Same assay, conditions: TC71 Ewing sarcoma viability, CellTiter-Glo ATP, 72 h; at 23.5 µM (top of the series)

SMILES	activity change, negative = cytotoxicity
N#C[C@H]1N[C@H](CO)[C@H]1c1ccc(C#Cc2ccccc2F)cc1	-18.8% (inactive)

Same assay, conditions: TC71 Ewing sarcoma viability, CellTiter-Glo ATP, 72 h; at 26 µM (top of the series)

SMILES	activity change, negative = cytotoxicity
C(=N\Nc1ccc2ccccc2n1)/c1ccc2c(c1)OCO2	-9% (inactive)
COc1ccc(Cl)cc1S(=O)(=O)Nc1ccc2c(c1)n(C)c(=O)n2C	-4.55% (inactive)
CCCCOc1ccc(NC(=O)C(=O)NCCCn2ccnc2)cc1	-2% (inactive)
COC(=O)C[C@H]1CC[C@@H](NC(=O)Nc2ccc(C(F)(F)F)cc2)[C@H](CO)O1	-8.02% (inactive)
CC(C)CC(NC(=O)c1cccs1)c1nnc(SCc2ccc(Cl)c(Cl)c2)n1C (centres undefined)	-10% (inactive)
COC(=O)COc1ccc(-c2nccc(-c3ccccn3)n2)cc1	7.95% (inactive)
CN(C)c1ccc(N=Nc2ccc(C(=O)O)cc2)cc1	9.97% (inactive)
COc1ccc(CCC(C)NCC2CCCCC2)cc1 (centres undefined)	7.46% (inactive)
CCCCNC1=CC(=O)C(=O)c2ccccc21	3.77% (inactive)
COc1ccccc1NS(=O)(=O)c1cc(NC(=O)c2cc3ccccc3oc2=O)ccc1C	1.31% (inactive)
COc1ccc2nc(-c3ccc(F)cc3)sc2c1	-14.1% (inactive)
N/C(Cc1nc(-c2ccc(F)cc2)cs1)=N\O	11.6% (inactive)
COc1ccccc1N(/N=C1\Sc2ccccc2C1=O)C(C)=O	-15.8% (inactive)
O=c1cc(CN2CCN(Cc3ccccc3)CC2)c2ccc(O)c(O)c2o1	-9.02% (inactive)
COC(=O)c1cccc(NC(=O)NC(=O)c2ccc(Cl)cc2)c1	-16.8% (inactive)
C[C@@H]1CN([C@@H](C)CO)S(=O)(=O)c2ccc(C#CCN(C)C)cc2O[C@@H]1CN(C)Cc1ccncc1	-4.92% (inactive)
CN(C)C(=O)c1cccc(-c2ccc(C3[C@@H]4CN(Cc5nccs5)C[C@H]3N4)cc2)c1 (some centres undefined)	0.197% (inactive)
CC(=O)c1ccc(N=C2C(=O)Nc3ccccc32)cc1	-7.15% (inactive)
Cc1ccsc1C(=O)OCC(=O)c1cc(C)n(C)c1C	15.6% (inactive)

SMILES	activity change, negative = cytotoxicity
O=C(O)c1cccc(N/N=C/c2ccc(OC(F)(F)F)cc2)c1	1.52% (inactive)
CCc1ccc(/C=C2\SC(=S)N(CCC(=O)Nc3cc(C)on3)C2=O)cc1	9.95% (inactive)
CCCN(C)C[C@H]1Oc2ncc(-c3ccccc3)cc2C(=O)N([C@@H](C)CO)C[C@H]1C	13% (inactive)
O=C1Nc2ccccc2C1=Nc1ccccc1-c1ccccc1	11.4% (inactive)
COCCCNc1ccn2nc(-c3ccccc3)cc2n1	-3.56% (inactive)
CCOC(=O)Cc1ccc(NC(=O)c2ccccc2Br)cc1	1.04% (inactive)
CCS(=O)(=O)N1Cc2ccccc2CC1C(=O)Nc1nnc(SCc2ccc(C#N)cc2)s1 (centres undefined)	21.3% (inactive)
C[C@@H]1CN([C@@H](C)CO)C(=O)Cc2cc(NC(=O)Cn3cnnn3)ccc2O[C@@H]1CN(C)Cc1ccc(Oc2ccccc2)cc1	21.2% (inactive)
O=C(CCCN1C(=O)S/C(=C\c2ccccc2)C1=O)NNC(=O)c1ccccc1O	5.39% (inactive)
COc1ccc(/C=N/Nc2ccc(C(=O)O)cc2)cc1Br	-12.7% (inactive)
CCc1ccc(/C=C2\SC(=S)N(CCCC(=O)Nc3cc(C)on3)C2=O)cc1	20.2% (inactive)
C[C@@H]1CN([C@H](C)CO)S(=O)(=O)c2ccc(C#Cc3ccncc3)cc2O[C@@H]1CN(C)C(=O)Nc1ccc2c(c1)OCO2	-0.54% (inactive)
C/C=C/c1ccc(C2[C@@H]3CN(C(=O)Cc4ccccc4)C[C@H]2N3)cc1 (some centres undefined)	6.18% (inactive)
Cc1ccc(S(=O)(=O)N(C)C[C@H]2Oc3c(cccc3N(C)C)C(=O)N([C@@H](C)CO)C[C@@H]2C)cc1	-6.3% (inactive)
COc1ccc(-c2sc3ccccc3c2-c2ccc(OCCN3CCCCC3)cc2)cc1	12.2% (inactive)
Cc1ccc(NC(=O)COC(=O)c2ccc3c(c2)OCO3)cc1S(=O)(=O)N1CCCCC1	10.2% (inactive)
C[C@@H]1CN([C@H](C)CO)C(=O)c2cc(NC(=O)CCCCCC(=O)Nc3ccccc3N)ccc2O[C@H]1CN(C)S(=O)(=O)c1ccc(Cl)cc1	-12.6% (inactive)
N#C[C@@H]1[C@H](c2ccc(C#Cc3ccccc3F)cc2)[C@@H](CO)N1C(=O)c1cccnc1	13.1% (inactive)
